Here are results for two molecules from patent US9617249B2, “Benzoheterocyclic anti-bacterial agents” (UNIVERSITY OF NOTRE DAME DU LAC, priority 2008, dated 2017).

Values after ≈ are worked out from the molar mass of the structure shown.

Holding throughout (format): cell-based
The subject of assay [1] is Vancomycin-Resistant Enterococcus (VRE). As to the kind of experiment: MIC against VRE. The text has this: (§1) In embodiments, various molecules as described herein have surprising activity against MRSA. […] While this particular molecule has been tested previously, the present application is the first disclosure of this compound having activity against multi-drug resistant “super bug” strains. In addition, in accordance with an embodiment described herein, this compound and analogs thereof may be synthesized in high yields in just a single step. Further embodiments herein provide analogs of the afore-mentioned compounds and methods of making and using such compounds.
(§2) In accordance with an embodiment, in order to first broadly screen these compounds, an agar diffusion assay was employed to determine whether these compounds have any activity against a diverse array of organisms which include MRSA and VRE. […] FIG. 4 illustrates selectivity and potency of various benzimidazoles, benzthiazoles, and benzoxazoles against a panel of microorganisms including gram-positive bacteria, gram-negative bacteria, fungi, yeast, and mycobacteria. The minimum inhibition concentration at 90% is shown in micromolar concentration. […] Therefore many of the compounds had their MICs determined which reflected many of the findings of the diffusion assay. FIG. 5 illustrates the chemical structure, molecular weight, and chemical formula of most of the compounds of FIG. 4.

Assay [2] deals with Methicillin-resistant Staphylococcus aureus (MRSA). As to the kind of experiment: MIC against MRSA.
Source text: as §1, §2

Assay [3] deals with methicillin-sensitive S. aureus (MSSA), ATCC 29213. As to the kind of experiment: Time-kill assay. Particulars: MSSA ATCC 29213, drug at various concentrations, Vancomycin as control (FIG. 12).
Assay [4] relates to Gram-positive clinical isolate strains. As to the kind of experiment: Potency and selectivity against panel of Gram-positive clinical isolate strains. The settings on record: Ciprofloxacin standard (FIG. 9). From the text:
(§3) FIG. 9 illustrates the potency and selectivity of ND-7901 against a panel of Gram-positive clinical isolate strains compared to a Ciprofloxacin standard in micrograms per milliliter. […] FIG. 10 illustrates the potency and selectivity of ND-7901 against a panel of Gram-negative clinical isolate strains compared to a Ciprofloxacin standard in micrograms per milliliter.

In assay [5] the test system is Gram-negative clinical isolate strains. As to the kind of experiment: Potency and selectivity against panel of Gram-negative clinical isolate strains. Particulars: Ciprofloxacin standard (FIG. 10).
Source text: as §3

The test system of assay [6] is S. aureus strains. As to the kind of experiment: Mutational analysis by growth without selection and recovery on drug plates. The settings on record: overnight growth with no selection, drug plates at 2-4 times the MIC (FIG. 13). From the text: FIG. 13 illustrates a mutational analysis of […] by growth of S. aureus strains overnight with no selection and recovery of resistant colonies on drug plates at 2-4 times the MIC value.

In the next assay the test system is Gram-positive strains. Briefly: MIC and MBC determinations against Gram-positive strains. Particulars: most Gram-positive isolates (FIG. 11). The procedure: FIG. 11 illustrates the minimum inhibitory concentration (MIC) and the minimum bactericidal concentration (MBC) determinations of ND-7901 to various Gram-positive strains. A series of broths were mixed with solutions of diluted drug an inoculum was applied. After incubation, the MIC was determined as the first concentration in which the growth of the organism has been inhibited. In contrast, the MBC was measured by inoculating the series of broths used for the MIC determination onto drug-free medium. The MBC is the first dilution at which growth is not observed. ND-7901 is bactericidal against most Gram-positive isolates.

For assay [7], the system named is S. aureus strains. Briefly: Mutational analysis by serial transfer experiments. The settings on record: 0.5-2 times the MIC, after 8 passages (FIG. 14). The procedure: FIG. 14 illustrates the mutational analysis of ND-7901 by serial transfer experiments. As such, the S. aureus strains were grown with ND-7901 (0.5-2 times the MIC) added and passed serially until resistance was found.

With `O=[N+]([O-])c1ccc(-c2nc3ccccc3[nH]2)o1` [nitrofuran benzimidazole], the figures for the MIC in assay [1] and in assay [2] were 16 µM (≈ 3.67 µg/mL) and 8 µM (≈ 1.83 µg/mL), respectively.
In the case of `O=[N+]([O-])c1ccc(-c2nc3cccc(O)c3[nH]2)o1` [ND-7901], in assay [3], the “kinetics of bacteria death (time-kill)” value is reported as “rapid kinetics of bacteria death”. Further, the “activity against Gram-positive isolates” value in assay [4] is given as “good activity”. The “activity against Gram-negative isolates” value in assay [5] was “limited activity”. Besides, the “spontaneous resistant mutants recovered” value with S. aureus strains [6] is given as “no spontaneous mutants were recovered”. In addition, the “bactericidal character (MBC versus MIC)” value in the assay on Gram-positive strains was “bactericidal”. Also, in the assay on S. aureus strains [7], the “level of resistance after serial passage” value was “very low level of resistance”.
